Data reported in patent US7456156B2, “Aryl boronic acids for treating obesity” (Genzyme Corporation, priority 2001, dated 2008).

Tested on: fat absorption through lipase inhibition
Assay: In vivo infusion assay in rats (olive oil gavage, triglyceride recovered from intestinal contents)
Details: rats gavaged with 4 mL olive oil emulsion with drug after 18 hour fast, intestinal contents after 8 hours; for In Vivo Infusion Assay in Rats ED50 (mg/g fat) or estimate: dose at half the maximum recoverable triglyceride
Experimental: Test compounds were dissolved in DMSO or dionized water. […] Samples were stored at −80° C. until lyophilization.
3 milliliters of hexane was added to each tube then it was capped and vortexed for 15 seconds at high speed. 3 milliliters of 1 N HCl was added then samples were subjected to wrist-action shaking for 1 hour.
The data was expressed as follows. […] The milligrams/liters values obtained from the HPLC analysis were entered.

Compound | ED50 (Rattus norvegicus, po, dose per body weight, read-out: In Vivo Infusion Assay in Rats Ed50 (mg/kg body wt) or estimate) | In Vivo Infusion Assay in Rats ED50 (mg/g fat) or estimate | In Vivo Infusion Assay in Rats Ed50 (mg/kg body wt) or estimate (dose per body weight)
C[N+](C)(C)CCCCCCCCCCCSCC(=O)c1ccc(B(O)O)cc1 [4-(14′-trimethylammonium-3′-thia-1′-keto-tetradecyl)-phenyl-boronic acid bromide] | 60 mg/kg | 8 mg/g fat | 
4-(14′-triethylammonium-3′-thia-1′-keto-tetradecyl)-3-phenyl-boronic acid bromide |  | 11 mg/g fat | 82.5 mg/kg body wt
4-(14′-trimethylammonium-3′-thia-1′-keto-tridecyl)-3-fluorophenyl-boronic acid bromide |  | 2 mg/g fat | 15 mg/kg body wt
